From US10301664B2, “Repurposing non-antimicrobial drugs and clinical molecules to treat bacterial infections” (Purdue Research Foundation, priority 2015, dated 2019)
≈ marks a conversion by molar mass, not a printed value. Read-outs that look alike come from different tables or passages of the source.

Legend:
[1] = test system: Methicillin resistant S. aureus (MRSA); experiment: MIC and MBC against methicillin resistant S. aureus clinical isolates (CLSI); format: cell-based; conditions: Staphylococcus aureus
[2] = test system: E. faecium ATCC 700221 (VRE); experiment: MIC and MBC against E. faecium VRE (CLSI), Table 1; format: cell-based; conditions: Enterococcus faecium
[3] = test system: Vancomycin-resistant S. aureus (VRSA); experiment: MIC and MBC against vancomycin-resistant S. aureus clinical isolates (CLSI); format: cell-based
S. epidermidis NRS 101 = experiment: MIC and MBC against S. epidermidis (CLSI); format: cell-based; conditions: Staphylococcus epidermidis, NRS101
[4] = test system: Vancomycin-intermediate S. aureus (VISA); experiment: MIC and MBC against vancomycin-intermediate S. aureus isolates (CLSI); format: cell-based; conditions: Staphylococcus aureus
S. Typhimurium = experiment: MIC against G-ve with and without colistin: S. Typhimurium; format: cell-based
MRSA USA200 = format: in vivo, BALB/c mice; conditions: oral, EB 30 mg/kg or FdUrd 25 mg/kg once daily for three days, monitored six days
Procedure: Animal procedures were approved by the Purdue University Animal Care and Use Committee (PACUC) (protocol no. 1311000988). Eight-week-old female BALB/c mice (Harlan Laboratories, Indianapolis, Ind.) were used for this study. Mice were rendered neutropenic by treatment with cyclophosphamide intraperitoneally (IP) 150 and 100 mg/kg at four days and one day before infection, respectively. Neutropenic mice were inoculated IP with 8×10^8 MRSA USA200. At one hour after infection, the mice were divided into five groups (n=10 per group), and two groups were treated orally with either EB 30 mg/kg or FdUrd 25 mg/kg. Two groups were treated IP with either EB 30 mg/kg or FdUrd 25 mg/kg. One group was used as a control with no treatment. Treatment was continued once daily for two more days (animals received three doses total). Mortality was monitored four times daily for six days, and the cumulative percent survival was determined. The data were subjected to statistical analysis using Kaplan-Meier survival curves. A log rank test was performed for 95% confidence intervals by GraphPad Prism 6.0 (GraphPad Software, La Jolla, Calif.).

[5] = test system: Methicillin-sensitive S. aureus (MSSA); experiment: MIC and MBC against methicillin-sensitive S. aureus isolates (CLSI); format: cell-based; conditions: Staphylococcus aureus
E.. coli O157:H7 = experiment: MIC against G-ve with and without colistin: E. coli O157:H7; format: cell-based
MRSA USA300 = experiment: Library hits: MIC/MBC against MRSA; format: cell-based, Staphylococcus aureus; conditions: Staphylococcus aureus
[6] = test system: vancomycin resistant E. faecium ATCC 700221 (VRE); experiment: Library hits: MIC/MBC against VRE; format: cell-based; conditions: VRE
[7] = test system: clinical isolates of S. aureus; experiment: MIC90 over clinical isolates of S. aureus; format: cell-based; conditions: Staphylococcus aureus, Table 1, read-out: MIC90 (MIC at which 90% of clinical isolates of S. aureus were inhibited)
[8] = test system: E. fecalis ATCC 51229 (VRE); experiment: MIC and MBC against E. fecalis VRE (CLSI); format: cell-based; conditions: Enterococcus
Procedure: The NIH Clinical Collections 1 and 2 (http://www.nihclinicalcollection.com) containing 727 FDA approved drugs and small molecules previously used in human clinical trials with known safety profiles were screened against ESKAPE pathogens. The library was initially screened at a single concentration of 16 μM to identify “hit” non-antibacterial drugs. Once the antimicrobial activity of the drugs was confirmed, we determined their MICs and minimum bactericidal concentrations (MBCs) according to the Clinical and Laboratory Standards Institute (CLSI).

O=c1c2ccccc2[se]n1-c1ccccc1 [Ebselen]
MBC ([1]; MRSA / NRS 70, read-out: MBC): 0.25 µg/mL (≈ 0.912 µM) | MIC ([1]; MRSA / NRS 70, read-out: MIC): 0.25 µg/mL (≈ 0.912 µM) | MBC ([1]; MRSA / NRS 71, read-out: MBC): 0.25 µg/mL (≈ 0.912 µM) | MIC ([1]; MRSA / NRS 71, read-out: MIC): 0.25 µg/mL (≈ 0.912 µM) | MBC ([1]; MRSA / NRS 100, read-out: MBC): 0.5 µg/mL (≈ 1.82 µM) | MIC ([1]; MRSA / NRS 100, read-out: MIC): 0.25 µg/mL (≈ 0.912 µM) | MBC ([1]; MRSA / NRS 108, read-out: MBC): 0.25 µg/mL (≈ 0.912 µM) | MIC ([1]; MRSA / NRS 108, read-out: MIC): 0.25 µg/mL (≈ 0.912 µM) | MBC ([1]; MRSA / NRS 119): 0.25 µg/mL (≈ 0.912 µM) | MIC ([1]; MRSA / NRS 119): 0.125 µg/mL (≈ 0.456 µM) | MBC ([1]; MRSA / NRS 123, read-out: MBC): 0.5 µg/mL (≈ 1.82 µM) | MIC ([1]; MRSA / NRS 123, read-out: MIC): 0.25 µg/mL (≈ 0.912 µM) | MBC ([1]; MRSA / NRS 194, read-out: MBC): 1 µg/mL (≈ 3.65 µM) | MIC ([1]; MRSA / NRS 194, read-out: MIC): 0.25 µg/mL (≈ 0.912 µM) | MBC ([1]; MRSA / NRS 382): 0.125 µg/mL (≈ 0.456 µM) | MIC ([1]; MRSA / NRS 382): 0.125 µg/mL (≈ 0.456 µM) | MBC ([1]; MRSA / NRS 383): 0.125 µg/mL (≈ 0.456 µM) | MIC ([1]; MRSA / NRS 383): 0.125 µg/mL (≈ 0.456 µM) | MBC ([1]; MRSA / NRS 384): 0.125 µg/mL (≈ 0.456 µM) | MIC ([1]; MRSA / NRS 384): 0.125 µg/mL (≈ 0.456 µM) | MBC ([1]; MRSA / NRS 385, NRS 385, read-out: MBC): 1 µg/mL (≈ 3.65 µM) | MIC ([1]; MRSA / NRS 385, NRS 385, read-out: MIC): 0.5 µg/mL (≈ 1.82 µM) | MBC ([1]; MRSA / NRS 386): 1 µg/mL (≈ 3.65 µM) | MIC ([1]; MRSA / NRS 386): 0.125 µg/mL (≈ 0.456 µM) | MBC ([1]; MRSA / NRS 387): 0.25 µg/mL (≈ 0.912 µM) | MIC ([1]; MRSA / NRS 387): 0.125 µg/mL (≈ 0.456 µM) | MBC ([1]; MRSA / NRS 483): 0.5 µg/mL (≈ 1.82 µM) | MIC ([1]; MRSA / NRS 483): 0.125 µg/mL (≈ 0.456 µM) | MBC ([1]; MRSA / NRS 484, NRS 484, read-out: MBC): 0.25 µg/mL (≈ 0.912 µM) | MIC ([1]; MRSA / NRS 484, NRS 484, read-out: MIC): 0.25 µg/mL (≈ 0.912 µM) | MBC [2]: 1 µg/mL (≈ 3.65 µM) | MIC [2]: 0.5 µg/mL (≈ 1.82 µM) | MIC ([3]; Staphylococcus aureus, VRSA): 0.125 µg/mL (≈ 0.456 µM) | MBC ([3]; Staphylococcus aureus, VRSA, VRSA1, read-out: MBC): 0.25 µg/mL (≈ 0.912 µM) | MIC ([3]; Staphylococcus aureus, VRSA, VRSA1, read-out: MIC): 0.25 µg/mL (≈ 0.912 µM) | MBC ([3]; Staphylococcus aureus, VRSA, VRSA2, read-out: MBC): 0.25 µg/mL (≈ 0.912 µM) | MIC ([3]; Staphylococcus aureus, VRSA, VRSA2, read-out: MIC): 0.25 µg/mL (≈ 0.912 µM) | MBC ([3]; Staphylococcus aureus, VRSA, VRSA3a, read-out: MBC): 0.25 µg/mL (≈ 0.912 µM) | MIC ([3]; Staphylococcus aureus, VRSA, VRSA3a, read-out: MIC): 0.25 µg/mL (≈ 0.912 µM) | MBC ([3]; Staphylococcus aureus, VRSA, VRSA3b, read-out: MBC): 1 µg/mL (≈ 3.65 µM) | MIC ([3]; Staphylococcus aureus, VRSA, VRSA3b, read-out: MIC): 0.25 µg/mL (≈ 0.912 µM) | MBC ([3]; Staphylococcus aureus, VRSA, VRSA4): 0.125 µg/mL (≈ 0.456 µM) | MBC ([3]; Staphylococcus aureus, VRSA, VRSA5, read-out: MBC): 0.25 µg/mL (≈ 0.912 µM) | MIC ([3]; Staphylococcus aureus, VRSA, VRSA5, read-out: MIC): 0.25 µg/mL (≈ 0.912 µM) | MBC ([3]; Staphylococcus aureus, VRSA, VRSA6, read-out: MBC): 0.5 µg/mL (≈ 1.82 µM) | MIC ([3]; Staphylococcus aureus, VRSA, VRSA6, read-out: MIC): 0.25 µg/mL (≈ 0.912 µM) | MBC ([3]; Staphylococcus aureus, VRSA, VRSA7, read-out: MBC): 0.5 µg/mL (≈ 1.82 µM) | MIC ([3]; Staphylococcus aureus, VRSA, VRSA7, read-out: MIC): 0.5 µg/mL (≈ 1.82 µM) | MBC ([3]; Staphylococcus aureus, VRSA, VRSA8): 0.125 µg/mL (≈ 0.456 µM) | MBC ([3]; Staphylococcus aureus, VRSA, VRSA9, read-out: MBC): 0.5 µg/mL (≈ 1.82 µM) | MIC ([3]; Staphylococcus aureus, VRSA, VRSA9, read-out: MIC): 0.25 µg/mL (≈ 0.912 µM) | MBC ([3]; Staphylococcus aureus, VRSA, VRSA10, read-out: MBC): 0.25 µg/mL (≈ 0.912 µM) | MIC ([3]; Staphylococcus aureus, VRSA, VRSA10, read-out: MIC): 0.25 µg/mL (≈ 0.912 µM) | MBC ([3]; Staphylococcus aureus, VRSA, VRSA11b, read-out: MBC): 0.25 µg/mL (≈ 0.912 µM) | MIC ([3]; Staphylococcus aureus, VRSA, VRSA11b, read-out: MIC): 0.25 µg/mL (≈ 0.912 µM) | MBC ([3]; Staphylococcus aureus, VRSA, VRSA12, read-out: MBC): 0.5 µg/mL (≈ 1.82 µM) | MIC ([3]; Staphylococcus aureus, VRSA, VRSA12, read-out: MIC): 0.25 µg/mL (≈ 0.912 µM) | MBC ([3]; Staphylococcus aureus, VRSA, VRSA13, read-out: MBC): 0.25 µg/mL (≈ 0.912 µM) | MIC ([3]; Staphylococcus aureus, VRSA, VRSA13, read-out: MIC): 0.25 µg/mL (≈ 0.912 µM) | MIC ([3]; VRSA8): 0.125/0.125 mg/L | MIC ([3]; VRSA11a): 0.125 µg/mL (≈ 0.456 µM) | MBC (S. epidermidis NRS 101): 0.5 µg/mL (≈ 1.82 µM) | MIC (S. epidermidis NRS 101): 0.5 µg/mL (≈ 1.82 µM) | MBC ([4]; NRS 1 / VISA): 0.125 µg/mL (≈ 0.456 µM) | MIC ([4]; NRS 1 / VISA): 0.125 µg/mL (≈ 0.456 µM) | MBC ([4]; NRS 37 / VISA): 0.125 µg/mL (≈ 0.456 µM) | MIC ([4]; NRS 37 / VISA): 0.125 µg/mL (≈ 0.456 µM) | MIC, colistin (+) (S. Typhimurium; with sub-inhibitory colistin 0.25 μg/ml): 0.0625 µg/mL (≈ 0.228 µM) | MIC, colistin (−) (S. Typhimurium; without colistin): 32 µg/mL (≈ 117 µM) | mice survival compared to that of control (MRSA USA200): 60% | MBC ([5]; MSSA / NRS 72, read-out: MBC): 0.5 µg/mL (≈ 1.82 µM) | MIC ([5]; MSSA / NRS 72, read-out: MIC): 0.25 µg/mL (≈ 0.912 µM) | MBC ([5]; MSSA / NRS 77, read-out: MBC): 1 µg/mL (≈ 3.65 µM) | MIC ([5]; MSSA / NRS 77, read-out: MIC): 0.25 µg/mL (≈ 0.912 µM) | MBC ([5]; MSSA / NRS 846): > 64 µg/mL | MIC ([5]; MSSA / NRS 846): 0.125 µg/mL (≈ 0.456 µM) | MBC ([5]; MSSA / NRS 860, read-out: MBC): 0.25 µg/mL (≈ 0.912 µM) | MIC ([5]; MSSA / NRS 860, read-out: MIC): 0.25 µg/mL (≈ 0.912 µM) | MIC, colistin (+) (E.. coli O157:H7; E. coli O157:H7, with sub-inhibitory colistin 0.0625 μg/ml): 0.125 µg/mL (≈ 0.456 µM) | MIC, colistin (−) (E.. coli O157:H7; E. coli O157:H7, without colistin): 32 µg/mL (≈ 117 µM) | MBC (MRSA USA300; read-out: MBC): 0.5 µM (≈ 0.137 µg/mL) | MIC (MRSA USA300; read-out: MIC): < 0.5 µM | MBC [6]: 1 µM (≈ 0.274 µg/mL) | MIC ([6]; read-out: MIC): 0.5 µM (≈ 0.137 µg/mL) | MIC90 [7]: 0.25 µg/mL (≈ 0.912 µM) | MBC [8]: 0.5 µg/mL (≈ 1.82 µM) | MIC [8]: 0.5 µg/mL (≈ 1.82 µM)
